Where two headings read alike, the source gives them in different places. Marks after values point to notes of the source that are not given here.
Assays:
[1] = Nitric oxide free radical scavenging activity (sodium nitroprusside); parameters: key to Half Maximal Inhibitory Concentration IC50 NO.: ---: no activity; conditions: for Half Maximal Inhibitory Concentration IC50 NO.: mean ± SD, triplicate; for nitric oxide radical scavenging activity: at the concentrations permitted to evaluate, Figure 3C
Protocol: The essential oil NO scavenging activity was estimated using the protocol described by El Guendouz et al. The inhibition percentage was calculated using the formula: Inhibition = [(A0 − (A1 − A2)/A0 × 100]. The A0 is the absorbance of sodium nitroprusside without sample, A1 and A2 were the absorbance of the sample with and without sodium nitroprusside.

acetylcholinesterase [2] = biological target: T1, acetylcholinesterase (Homo sapiens, UniProt P22303); experiment: biochemical; format: biochemical
Protocol: The inhibitory activity of the essential oils on acetylcholinesterase was evaluated according to the method previously described. The following formula was used to determine the percentage of inhibition action: Inhibition = [(A0 − A1)/A0) × 100]; where A0 is the absorbance of the control and A1 is the absorbance of the sample.

5-lipoxygenase = 5-lipoxygenase (Glycine max, UniProt P08170); experiment: Lipoxygenase inhibition assay (linoleic acid substrate); format: biochemical
Protocol: The 5-lipoxygenase assay was carried out according to the method described by El Guendouz et al. The following formula was used to determine the percentage of inhibition action: Inhibition = [(A0 − A1)/A0) × 100]; where A0 is the absorbance of the control and A1 is the absorbance of the sample.

tyrosinase [3] = experiment: Tyrosinase inhibition assay (L-DOPA oxidation); format: biochemical; parameters: inhibition: dose or concentration left out as unconfirmed; conditions: Figure 4C; read-out: tyrosinase inhibition percentage, major terpenes
Protocol: (§1) The tyrosinase inhibition was carried out by the tyrosinase-dependent L-3,4-dihydroxyphenylalanine (L-DOPA) oxidation assay as previously described. The following formula was used to determine the percentage of inhibition action: Inhibition = [(A0 − A1)/A0) × 100]; with A0 as the absorbance of the control and A1 as the absorbance of the sample.

S. aureus ATCC 6538 = experiment: Agar disc diffusion; format: cell-based, Staphylococcus aureus; conditions: 5 µL per 6 mm disc, 24 h, diameter including disc, chloramphenicol 30 μg/mL
Protocol: (§2) The Gram negative bacterium Escherichia coli DSM 1077, and the Gram positive Staphylococcus aureus ATCC 6538 and the methicillin-resistant S. aureus 15 (MRSA 15) were used in the present study. The bacterial strains were recovered from −80 °C in the culture medium Brain Heart Infusion (BHI, Oxoid, Basingstock, UK), when required agar (VWR, Radnor, Philadelphia, PA, USA) at 1.5% w/v.
(§3) The bacterial susceptibility to the combinations Ro:La:Ca at ratio 1:1:1, Ro:La:Ca at ratio 2/3:1/6:16, Ro:La:Ca at ratio 1/6:2/3:16, Ro:La:Ca at ratio 1/6:1/6:2/3, and the components linalool, 1,8 cineole, and camphor, were performed by the agar disc diffusion technique as previously described. Briefly, 100 µL of the bacterial suspension at an OD600nm 0.3–0.4 was inoculated in BHI agar, and sterile discs (∅ 6 mm) were distributed over the surface. A volume of 5 µL of each EO and the individual components 1,8-cineole (52.62 mg/mL), and linalool (16.13 mg/mL), were deposited in the center of each disc. The plates were incubated for 24 h. The diameter of the inhibition zone including the disc was measured. The assay was performed in triplicate (n = 6).

[4] = test system: methicillin-resistant S. aureus 15 (MRSA 15); experiment: Agar disc diffusion; format: cell-based, Staphylococcus aureus; conditions: 5 µL per 6 mm disc, 24 h, diameter including disc, chloramphenicol 30 μg/mL
Protocol: as §2, §3

E. coli DSM 1077 = experiment: Agar disc diffusion; format: cell-based, Escherichia coli; conditions: 5 µL per 6 mm disc, 24 h, diameter including disc, chloramphenicol 30 μg/mL
Protocol: as §2, §3

acetylcholinesterase [5] = biological target: T1, acetylcholinesterase; conditions: cited from earlier work
[6] = Hydrogen peroxide scavenging activity (colorimetric); parameters: key: ---: no activity; conditions: mean ± SD, triplicate
Protocol: The scavenging hydrogen peroxide was evaluated by a colorimetric assay according to Gupta and Sharma. […] Tests were carried out in triplicate.

[7] = Superoxide anion radical scavenging (nonenzymatic PMS-NADH system); parameters: key: ---: no activity; conditions: mean ± SD, triplicate
Protocol: Superoxide anion free radical inhibition ability was evaluated using a nonenzymatic PMS-NADH (phenazine methosulfate–nicotinamide adenine dinucleotide) system as previously reported. The inhibition quantification was performed as aforementioned.

α-glucosidase = α-glucosidase (Saccharomyces cerevisiae, UniProt P53341); experiment: α-Glucosidase inhibition assay; format: biochemical; conditions: mean ± SD, triplicate
Protocol: The α-glucosidase inhibitor capacity of the essential oils was determined as described by El-Guendouz et al. The crease of absorbance was performed at 405 nm. The inhibition percentage of the enzyme was calculated as follows: I% = [(A0 −A1)/A0) × 100]; where A0 is the absorbance of the control and A1 is the absorbance of the sample. The trials were triplicated.

[8] = DPPH free radical-scavenging activity; conditions: mean ± SD, triplicate
Protocol: The radical scavenging capacity was estimated according to Bounatirou et al. using 2,20-diphenylpicrylhydrazyl (DPPH) free radicals. The radical inhibition percentage was calculated with the equation: Inhibition = [(A0 − A1)/A0 × 100]; A0 stands for the absorbance of the control and A1 stands for the absorbance of the sample. […] Tests were carried out in triplicate.

S. aureus = test system: S. aureus; parameters: method as in PMID 12485339; conditions: previous study; cited from earlier work
E. coli = test system: E. coli; parameters: method as in PMID 12485339; conditions: previous study; cited from earlier work
MRSA strains = test system: MRSA strains; parameters: method as in PMID 31461850; conditions: cited from earlier work
MRSA 15 biofilm = experiment: Biofilm formation inhibition (crystal violet); format: cell-based, Staphylococcus aureus; conditions: EO at 2.5, 5 and 10 μL/mL; chlorohexidine 0.2% v/v; 24 h; versus control culture; Figure 5
Protocol: as §2
(§4) The inhibition of biofilm formation was done using the crystal violet assay. Briefly, 150 µL of an overnight culture prepared as previously mentioned was centrifuged for 10 min at 4 °C. For the preparation of the bacterial suspension, 150 µL of BHI medium supplemented with EOs at the 2.5 µL/mL, 5 µL/mL and 10 µL/mL, chlorhexidine 0.2% (v/v), n-propanol (20%), was added to the centrifuged bacterial culture. Each well containing 180 µL of BHI supplemented with EOs at the appropriate concentration was inoculated with 20 µL of the previous bacterial suspension. The cultures with no EO and in the presence of chlorohexidine (0.2 %, v/v), were used as control. The culture was left to adhere and form a biofilm for 24 h. After this incubation time, non-adherent cells were eliminated and the wells were washed twice with PBS; then, the microplate was left to dry for 15–30 min. […] The absorbance was measured at 595 nm after 15–20 min incubation.

[9] = test system: S. aureus ATCC 6538 biofilm; experiment: Biofilm formation inhibition (crystal violet); format: cell-based, Staphylococcus aureus; conditions: EO at 2.5, 5 and 10 μL/mL; chlorohexidine 0.2% v/v; 24 h; versus control culture; Figure 5
Protocol: as §2, §4

E. coli DSM 1077 biofilm = experiment: Biofilm formation inhibition (crystal violet); format: cell-based, Escherichia coli; conditions: EO at 2.5, 5 and 10 μL/mL; chlorohexidine 0.2% v/v; 24 h; versus control culture; Figure 5
Protocol: as §2, §4

tyrosinase [10] = biological target: T2, tyrosinase (Homo sapiens, UniProt P14679); experiment: Tyrosinase inhibition assay (L-DOPA oxidation); format: biochemical; parameters: inhibition: dose or concentration left out as unconfirmed; conditions: 50 mg/mL; Figure 4C
T2 sequence (P14679 19-529): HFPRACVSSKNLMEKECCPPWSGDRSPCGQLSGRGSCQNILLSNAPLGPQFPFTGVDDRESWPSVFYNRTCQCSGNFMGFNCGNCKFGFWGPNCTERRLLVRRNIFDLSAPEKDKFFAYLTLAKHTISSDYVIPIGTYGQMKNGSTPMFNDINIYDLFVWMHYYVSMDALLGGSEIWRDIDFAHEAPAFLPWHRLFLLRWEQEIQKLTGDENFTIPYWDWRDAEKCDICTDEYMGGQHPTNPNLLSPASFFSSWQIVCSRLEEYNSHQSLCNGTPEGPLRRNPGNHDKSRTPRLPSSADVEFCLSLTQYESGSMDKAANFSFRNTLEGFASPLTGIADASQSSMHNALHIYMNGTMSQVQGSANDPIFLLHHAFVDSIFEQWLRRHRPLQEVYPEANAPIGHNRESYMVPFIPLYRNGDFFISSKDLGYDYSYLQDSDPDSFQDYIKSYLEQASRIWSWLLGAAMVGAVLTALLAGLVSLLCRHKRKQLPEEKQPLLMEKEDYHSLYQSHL
Protocol: as §1

T1 sequence (P22303 32-614, species assumed): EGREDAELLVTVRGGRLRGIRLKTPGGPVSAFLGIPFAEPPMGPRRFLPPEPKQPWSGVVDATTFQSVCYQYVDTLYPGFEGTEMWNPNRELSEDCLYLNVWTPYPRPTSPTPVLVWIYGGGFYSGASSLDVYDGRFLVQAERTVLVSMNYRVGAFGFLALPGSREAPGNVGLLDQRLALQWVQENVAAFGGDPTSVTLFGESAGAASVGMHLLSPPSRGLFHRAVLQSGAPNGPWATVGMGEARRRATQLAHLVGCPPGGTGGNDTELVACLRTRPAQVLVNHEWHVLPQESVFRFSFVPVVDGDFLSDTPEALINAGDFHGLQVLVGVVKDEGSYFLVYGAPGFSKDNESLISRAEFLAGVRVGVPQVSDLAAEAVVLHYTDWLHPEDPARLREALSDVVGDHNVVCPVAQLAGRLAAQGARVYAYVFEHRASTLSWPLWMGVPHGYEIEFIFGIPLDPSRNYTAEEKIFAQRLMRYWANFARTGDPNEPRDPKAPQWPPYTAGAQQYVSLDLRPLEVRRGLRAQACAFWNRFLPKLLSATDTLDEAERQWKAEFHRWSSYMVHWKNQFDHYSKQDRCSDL
Sequence of 5-lipoxygenase (P08170 whole entry): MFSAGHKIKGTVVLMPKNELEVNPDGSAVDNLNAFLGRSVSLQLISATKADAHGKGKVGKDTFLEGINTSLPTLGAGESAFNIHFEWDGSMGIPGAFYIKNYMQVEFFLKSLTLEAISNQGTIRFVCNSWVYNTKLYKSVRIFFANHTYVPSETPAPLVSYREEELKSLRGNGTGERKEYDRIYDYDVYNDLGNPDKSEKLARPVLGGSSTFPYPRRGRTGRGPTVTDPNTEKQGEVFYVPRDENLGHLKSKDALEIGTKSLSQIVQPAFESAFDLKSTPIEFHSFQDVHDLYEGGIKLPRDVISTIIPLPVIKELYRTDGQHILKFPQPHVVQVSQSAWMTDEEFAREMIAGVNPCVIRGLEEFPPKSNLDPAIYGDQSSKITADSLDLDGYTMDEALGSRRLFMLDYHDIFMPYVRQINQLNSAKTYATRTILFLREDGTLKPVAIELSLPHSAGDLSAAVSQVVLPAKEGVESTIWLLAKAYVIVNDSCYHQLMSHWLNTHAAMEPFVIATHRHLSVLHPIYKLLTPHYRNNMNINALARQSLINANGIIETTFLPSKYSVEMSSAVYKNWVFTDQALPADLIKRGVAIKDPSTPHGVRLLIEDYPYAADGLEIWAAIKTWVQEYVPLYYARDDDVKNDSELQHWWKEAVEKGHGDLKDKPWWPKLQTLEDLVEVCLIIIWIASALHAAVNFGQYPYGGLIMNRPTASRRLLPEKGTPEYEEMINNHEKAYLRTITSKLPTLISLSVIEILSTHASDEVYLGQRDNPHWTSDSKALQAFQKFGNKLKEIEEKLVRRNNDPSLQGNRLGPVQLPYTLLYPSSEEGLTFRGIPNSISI
Sequence of α-glucosidase (P53341 whole entry): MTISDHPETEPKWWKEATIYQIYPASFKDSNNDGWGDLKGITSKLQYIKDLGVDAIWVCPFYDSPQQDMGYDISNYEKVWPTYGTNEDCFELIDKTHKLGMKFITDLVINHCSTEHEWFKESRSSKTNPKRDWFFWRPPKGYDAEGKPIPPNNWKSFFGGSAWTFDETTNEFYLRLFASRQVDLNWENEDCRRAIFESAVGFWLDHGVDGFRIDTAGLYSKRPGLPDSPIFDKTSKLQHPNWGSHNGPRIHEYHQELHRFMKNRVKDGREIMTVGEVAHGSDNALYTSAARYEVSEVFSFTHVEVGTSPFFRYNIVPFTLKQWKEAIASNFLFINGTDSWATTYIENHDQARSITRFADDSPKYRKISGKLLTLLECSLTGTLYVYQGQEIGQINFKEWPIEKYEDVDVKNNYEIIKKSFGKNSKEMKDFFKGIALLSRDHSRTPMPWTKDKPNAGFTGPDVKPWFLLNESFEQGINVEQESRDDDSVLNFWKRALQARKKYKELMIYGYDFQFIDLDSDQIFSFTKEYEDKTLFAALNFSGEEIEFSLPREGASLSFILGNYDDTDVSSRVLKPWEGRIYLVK

Row | SMILES | Half Maximal Inhibitory Concentration IC50 NO. [1] | lipoxygenase inhibition / anti-inflammatory activity (5-lipoxygenase) | inhibition (tyrosinase [3]) [%] | Inhibition Zone S. aureus ATCC 6538 (S. aureus ATCC 6538) | Inhibition Zone Methicillin Resistant S. aureus 15 [4] | Inhibition Zone E. coli DSM 1077 (E. coli DSM 1077) | IC50 (acetylcholinesterase [5]) [µM] | Half Maximal Inhibitory Concentration IC50 H2O2 [6] | nitric oxide radical scavenging activity [1] | Half Maximal Inhibitory Concentration IC50 Superoxide [7] | other results
1 | CC12CCC(CC1)C(C)(C)O2 [1,8-Cineole] | --- | weak anti-inflammatory activity | > 20 | 10.5 ± 0.70 ^c mm | 12.16 ± 0.47 ^b mm | 12.16 ± 0.62 ^b,c mm | 64.8 |  |  |  | IC50 (acetylcholinesterase [2]): 1170 µM; Inhibition Zone S. aureus ATCC 6538 (S. aureus ATCC 6538; listed as 1,8-cineole): 10.5 ± 0.70 mm
2 | CC1(C)C2CCC1(C)C(O)C2 (stereo not shown) [Borneol] |  |  | > 20 |  |  |  |  | --- | had activity |  | IC50 (acetylcholinesterase [2]; mean ± SD, triplicate, read-out: Half Maximal Inhibitory Concentration IC50 Acetylcholinesterase (converted)): 3110 µM
3 | CC12CCC(CC1=O)C2(C)C (stereo not shown) [Camphor] | --- | weak anti-inflammatory activity | > 20 | 10.5 ± 1.22 ^c mm | 11.67 ± 1.02 ^b,c mm | 13.00 ± 0.40 ^b mm |  | --- |  | --- | Inhibition Zone S. aureus ATCC 6538 (S. aureus ATCC 6538; listed as camphor): 10.5 ± 1.22 mm
4 | O=C(N[C@H](CO)[C@H](O)c1ccc([N+](=O)[O-])cc1)C(Cl)Cl [Chloramphenicol] |  |  |  | 10.16 ± 0.70 ^c mm | 6.00 ± 0.00 ^d mm |  |  |  |  |  | zone of inhibition at 30 µg/mL (S. aureus ATCC 6538; Staphylococcus aureus, ATCC6538): 10.2 ± 0.7 mm; zone of inhibition at 30 µg/mL ([4]; Staphylococcus aureus, MRSA): 6 mm; zone of inhibition at 30 µg/mL (E. coli DSM 1077; Escherichia coli, DSM1077): 10.8 ± 0.47 mm
5 | C=C(C)[C@H]1CC=C(C)CC1 [Limonene] |  |  |  |  |  |  |  |  | had activity |  | Half Maximal Inhibitory Concentration IC50 α-Glucosidase (α-glucosidase): 1.18 ± 0.06 ^a mg/mL; Half Maximal Inhibitory Concentration IC50 Acetylcholinesterase (acetylcholinesterase [2]; mean ± SD, triplicate): 0.08 ± 0.00 ^e,f,g,h,i mg/mL; Half Maximal Inhibitory Concentration IC50 Lipoxygenase (5-lipoxygenase; mean ± SD, triplicate): 0.11 ± 0.01 ^f mg/mL
6 | C=CC(C)(O)CCC=C(C)C (stereo not shown) [Linalool] | --- | weak anti-inflammatory activity | > 20 | 12.83 ± 0.47 ^b,c mm | 13.83 ± 1.24 ^b mm | 15.67 ± 0.23 ^a mm |  |  |  | 20.41 ± 1.47 ^b mg/mL | Half Maximal Inhibitory Concentration IC50 DPPH [8]: 102.34 ± 3.13 ^b mg/mL; Half Maximal Inhibitory Concentration IC50 NO. ([1]; listed as linalool): had no ability; Half Maximal Inhibitory Concentration IC50 α-Glucosidase (α-glucosidase; listed as linalool): did not have activity; Inhibition Zone S. aureus ATCC 6538 (S. aureus ATCC 6538; listed as linalool): 12.83 ± 0.47 mm; Inhibition Zone Methicillin Resistant S. aureus 15 ([4]; listed as linalool): 13.83 ± 1.24 mm; Inhibition Zone E. coli DSM 1077 (E. coli DSM 1077; listed as linalool): 15.67 ± 0.23 mm; inhibition zone against S. aureus (S. aureus): 13.0 ± 4.2 mm; inhibition zone against E. coli (E. coli): 10.3 ± 0.5 mm
7 | C=CC(C)(CCC=C(C)C)OC(C)=O (stereo not shown) [Linalyl acetate] | --- |  | > 20 |  |  |  |  | --- |  | 18.23 ± 0.01 ^b mg/mL | Half Maximal Inhibitory Concentration IC50 DPPH [8]: 148.61 ± 1.28 ^a mg/mL; Half Maximal Inhibitory Concentration IC50 NO. ([1]; listed as linalyl acetate): had no ability; Half Maximal Inhibitory Concentration IC50 α-Glucosidase (α-glucosidase; listed as linalyl acetate): did not have activity; MIC against MRSA strains (MRSA strains): 450.50 ± 0.00 μL/mL
8 | [H]/N=C(\N/C(=N/[H])NCCCCCCNC(=N)NC(=N)Nc1ccc(Cl)cc1)Nc1ccc(Cl)cc1 [chlorohexidine] |  |  |  |  |  |  |  |  |  |  | biofilm formation of MRSA 15 (MRSA 15 biofilm): reduced biofilm formation; biofilm formation of S. aureus ATCC 6538 [9]: induced the biofilm formation; biofilm formation of E. coli DSM 1077 (E. coli DSM 1077 biofilm): reduced biofilm formation
9 | CC1=CCC2CC1C2(C)C (stereo not drawn) [α-Pinene] |  |  |  |  |  |  | 147 | --- | had activity |  | tyrosinase inhibition percentage, major terpenes (tyrosinase [10]): lowest ability
10 | CC1=CC[C@@H](C(C)(C)O)CC1 [α-Terpineol] |  | weak anti-inflammatory activity | > 20 |  |  |  | 8430 | --- | had activity |  | Half Maximal Inhibitory Concentration IC50 α-Glucosidase (α-glucosidase): had no activity

Source: publication PMC8472154 (Molecules, 2021)
